Among the test systems are SR leukemia; HCC-2998 colon; OVCAR-4 ovarian; MOLT-4 leukemia; SK-MEL-5 melanoma; HCT-116 colon; RXF 393 renal; MALME-3M melanoma; UO-31 renal; A498 renal.
Common to all, as to assay: growth of human tumour cells (NCI), 48 h

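Each compound was tested at five concentrations against cells in 96-well plates for 48 hours. The concentration for 50% growth inhibition is given as GI50. At the TGI there is no net growth.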

Regarding `NC(N)=NNC(=O)C(=O)O`, the TGI in the assay on SR leukemia, in the assay on HCC-2998 colon, with OVCAR-4 ovarian, in the assay on MOLT-4 leukemia, in the assay with SK-MEL-5 melanoma and with HCT-116 colon was over 100 µM throughout. Besides, the TGI in the assay with RXF 393 renal, in the assay with MALME-3M melanoma, in the assay on UO-31 renal and in the assay with A498 renal was over 100 µM each time.

Turning to `CCOC(=O)/C=C/c1ccc(C(=O)OCC)[nH]1`, the GI50 with SR leukemia is 0.676 µM; in the assay on HCC-2998 colon it was 12.3 µM; with OVCAR-4 ovarian, 20.3 µM; with MOLT-4 leukemia, 4.42 µM; with SK-MEL-5 melanoma, 2.34 µM; in the assay with HCT-116 colon it was 4.56 µM. For the same compound, the GI50 with RXF 393 renal is 9.59 µM; with MALME-3M melanoma, 2.89 µM; in the assay on UO-31 renal, 4 µM; with A498 renal, 1.61 µM. Besides, the TGI with SR leukemia was over 100 µM; in the assay with HCC-2998 colon, 77.3 µM; in the assay on OVCAR-4 ovarian, over 100 µM; with MOLT-4 leukemia, over 100 µM; in the assay on SK-MEL-5 melanoma it was 8.01 µM; in the assay on HCT-116 colon, over 100 µM. In addition, the TGI with RXF 393 renal is 46.9 µM; in the assay on MALME-3M melanoma, over 100 µM; in the assay on UO-31 renal it was over 100 µM; with A498 renal, 12.1 µM.

With `CC1(C)C(=O)/C(=C\c2ccco2)C[C@]2(C)[C@H]3CC=C4[C@@H]5C[C@](C)(C(=O)O)CC[C@]5(C)CC[C@@]4(C)[C@]3(C)CC[C@@H]12`, the GI50 is 9.85 µM with SR leukemia; 11 µM in the assay with HCC-2998 colon; 12.8 µM in the assay with OVCAR-4 ovarian; 4.37 µM with MOLT-4 leukemia; 10.5 µM in the assay on SK-MEL-5 melanoma; 7.27 µM in the assay on HCT-116 colon. Further, the GI50 in the assay on RXF 393 renal was 10.7 µM; in the assay with MALME-3M melanoma it was 12.7 µM; in the assay with UO-31 renal, 5.01 µM; in the assay with A498 renal it was 10.3 µM. Further, the TGI in the assay on SR leukemia was over 100 µM; in the assay with HCC-2998 colon it was 24.3 µM; in the assay with OVCAR-4 ovarian it was 27 µM; with MOLT-4 leukemia, 26.7 µM; in the assay with SK-MEL-5 melanoma it was 22.5 µM; in the assay with HCT-116 colon, 26.1 µM. Also, the TGI in the assay on RXF 393 renal amounted to 22.7 µM; in the assay on MALME-3M melanoma, 29.3 µM; in the assay on UO-31 renal it was 19.9 µM; in the assay with A498 renal it was 22.4 µM.

On to `O=Nc1c2cccnc2n2nnc3ccc(Cl)cc3c12`, for which the GI50 with SR leukemia was 0.0458 µM; in the assay with HCC-2998 colon, 1.72 µM; in the assay on OVCAR-4 ovarian, 0.98 µM; in the assay on MOLT-4 leukemia, 0.0476 µM; in the assay on SK-MEL-5 melanoma, 5.73 µM; in the assay with HCT-116 colon it was 0.316 µM. The GI50 is 0.65 µM in the assay with RXF 393 renal, 1.57 µM in the assay on MALME-3M melanoma, 1.05 µM in the assay on UO-31 renal and 3.34 µM in the assay with A498 renal. Further, the TGI was found to be 2.99 µM in the assay on SR leukemia; 4.95 µM with HCC-2998 colon; 3.86 µM in the assay on OVCAR-4 ovarian; 1.49 µM with MOLT-4 leukemia; 14.5 µM in the assay on SK-MEL-5 melanoma; 6.11 µM in the assay on HCT-116 colon. In addition, the TGI in the assay on RXF 393 renal is 1.64 µM; with MALME-3M melanoma it was 4.95 µM; in the assay on UO-31 renal, 9.51 µM; with A498 renal it was 10.3 µM.

On to `c1cc2c(cnc3cscc32)s1`, for which the TGI in the assay with SR leukemia, in the assay on HCC-2998 colon, with OVCAR-4 ovarian, in the assay on MOLT-4 leukemia, in the assay on SK-MEL-5 melanoma and in the assay on HCT-116 colon was over 100 µM throughout. Further, the TGI in the assay with RXF 393 renal, in the assay on MALME-3M melanoma, with UO-31 renal and in the assay with A498 renal was over 100 µM throughout.

For the compound `Cc1c(C(=O)CC(=O)C(=O)NC2C3CC4CC(C3)CC2C4)[n+](=O)c2ccccc2n1[O-]` (stereo not given), the TGI with SR leukemia, with HCC-2998 colon, in the assay on OVCAR-4 ovarian, in the assay with MOLT-4 leukemia, with SK-MEL-5 melanoma and in the assay on HCT-116 colon was over 100 µM in each case. The TGI with RXF 393 renal, with MALME-3M melanoma, in the assay with UO-31 renal and in the assay with A498 renal was over 100 µM each time.

With `CCOC(=O)/C(C1=CC(=O)C(=O)c2ccccc21)=C(/C)NCc1ccccc1`, the GI50 with SR leukemia is 0.127 µM; in the assay with HCC-2998 colon, 2.85 µM; in the assay with OVCAR-4 ovarian, 3.12 µM; in the assay with MOLT-4 leukemia it was 0.182 µM; with SK-MEL-5 melanoma it was 1.78 µM; in the assay with HCT-116 colon it was 1.52 µM. Further, the GI50 with RXF 393 renal was 0.186 µM; in the assay with MALME-3M melanoma it was 1.66 µM; in the assay on UO-31 renal, 3.35 µM; in the assay on A498 renal, 4.77 µM. In addition, the TGI with SR leukemia is 0.274 µM; in the assay with HCC-2998 colon, 8.2 µM; with OVCAR-4 ovarian it was 56.7 µM; with MOLT-4 leukemia, 0.434 µM; in the assay with SK-MEL-5 melanoma it was 3.38 µM; in the assay on HCT-116 colon it was 2.85 µM. Further, the TGI with RXF 393 renal is 1.73 µM; with MALME-3M melanoma it was 3.57 µM; in the assay with UO-31 renal, over 100 µM; with A498 renal it was 10.4 µM.

`O=C1Cc2c(-c3ccccc3)cc(-c3cccc(Cl)c3)nc2-c2ccccc2N1`: the TGI with SR leukemia is over 100 µM; in the assay with HCC-2998 colon, 7.76 µM; in the assay on OVCAR-4 ovarian it was 5.71 µM; with MOLT-4 leukemia it was over 90.4 µM; in the assay with SK-MEL-5 melanoma, over 48.7 µM; in the assay with HCT-116 colon it was 4.13 µM. Further, the TGI in the assay on RXF 393 renal is 6.28 µM; in the assay on MALME-3M melanoma it was 13.3 µM; with UO-31 renal, 11.2 µM; with A498 renal, 15.7 µM.

Take `Cc1ccc(N2C(=O)C(Cl)=C(Nc3cccc(O)c3)C2=O)cc1Cl`: the GI50 was 8.06 µM in the assay on SR leukemia; 14.5 µM with HCC-2998 colon; 26.9 µM in the assay with OVCAR-4 ovarian; 3.13 µM with MOLT-4 leukemia; 15 µM with SK-MEL-5 melanoma; 13.9 µM in the assay on HCT-116 colon. Moreover, the GI50 in the assay on RXF 393 renal was 0.549 µM; in the assay with MALME-3M melanoma, 17.2 µM; in the assay with UO-31 renal it was 26.1 µM; in the assay with A498 renal, 12.4 µM. For the same compound, the TGI in the assay with SR leukemia stood at 30.4 µM; with HCC-2998 colon, 29.6 µM; with OVCAR-4 ovarian it was 76.3 µM; with MOLT-4 leukemia it was 21.2 µM; with SK-MEL-5 melanoma it was 28.9 µM; with HCT-116 colon it was 27.8 µM. In addition, the TGI with RXF 393 renal was found to be 22.2 µM; in the assay with MALME-3M melanoma it was 31.4 µM; with UO-31 renal, 75.8 µM; in the assay on A498 renal it was 25.5 µM.

Values taken from PubChem BioAssay (NCI).
